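Cultured in 96-well plates, cells were exposed to test compound for 48 hours across five concentrations. The concentration for full growth arrest is given as TGI.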
Key:
Test in all cases: inhibition of tumour cell growth, NCI panel, 48 h
OVCAR-4 ovarian = test system: OVCAR-4 ovarian
EKVX NSCLC = test system: EKVX NSCLC
K-562 leukemia = test system: K-562 leukemia
COLO 205 colon = test system: COLO 205 colon
SNB-19 CNS = test system: SNB-19 CNS
HS 578T breast = test system: HS 578T breast
MDA-MB-231 breast = test system: MDA-MB-231 breast
T-47D breast = test system: T-47D breast
SF-539 CNS = test system: SF-539 CNS
UACC-62 melanoma = test system: UACC-62 melanoma
SK-MEL-28 melanoma = test system: SK-MEL-28 melanoma
SF-268 CNS = test system: SF-268 CNS
HT29 colon = test system: HT29 colon
U251 CNS = test system: U251 CNS
NCI-H522 lung = test system: NCI-H522 lung
KM12 colon = test system: KM12 colon
M14 melanoma = test system: M14 melanoma
BT-549 breast = test system: BT-549 breast
MDA-MB-435 = test system: MDA-MB-435
DU-145 prostate = test system: DU-145 prostate
A549 NSCLC = test system: A549 NSCLC
NCI/ADR-RES ovarian = test system: NCI/ADR-RES ovarian
SR leukemia = test system: SR leukemia
LOX IMVI melanoma = test system: LOX IMVI melanoma
UO-31 renal = test system: UO-31 renal
SN12C renal = test system: SN12C renal
OVCAR-5 ovarian = test system: OVCAR-5 ovarian
CCRF-CEM leukemia = test system: CCRF-CEM leukemia
HCT-116 colon = test system: HCT-116 colon
SF-295 CNS = test system: SF-295 CNS
MCF7 breast = test system: MCF7 breast
NCI-H226 lung = test system: NCI-H226 lung
786-0 renal = test system: 786-0 renal
NCI-H23 lung = test system: NCI-H23 lung
SNB-75 CNS = test system: SNB-75 CNS
TK-10 renal = test system: TK-10 renal
HOP-92 NSCLC = test system: HOP-92 NSCLC
UACC-257 melanoma = test system: UACC-257 melanoma
A498 renal = test system: A498 renal
HCC-2998 colon = test system: HCC-2998 colon
CAKI-1 renal = test system: CAKI-1 renal
NCI-H460 lung = test system: NCI-H460 lung
ACHN renal = test system: ACHN renal
SK-MEL-2 melanoma = test system: SK-MEL-2 melanoma
MDA-N = test system: MDA-N
HCT-15 colon = test system: HCT-15 colon
MALME-3M melanoma = test system: MALME-3M melanoma
SK-MEL-5 melanoma = test system: SK-MEL-5 melanoma
OVCAR-8 ovarian = test system: OVCAR-8 ovarian
SW-620 colon = test system: SW-620 colon
SK-OV-3 ovarian = test system: SK-OV-3 ovarian
IGROV1 ovarian = test system: IGROV1 ovarian
PC-3 prostate = test system: PC-3 prostate
HL-60(TB) leukemia = test system: HL-60(TB) leukemia
HOP-62 NSCLC = test system: HOP-62 NSCLC
MOLT-4 leukemia = test system: MOLT-4 leukemia
RXF 393 renal = test system: RXF 393 renal
RPMI-8226 leukemia = test system: RPMI-8226 leukemia
OVCAR-3 ovarian = test system: OVCAR-3 ovarian

Structure (SMILES): CC1(O)CC23CC1CCC2(C)C12CCCC(C)(C(=O)O1)C2CC3O (centres undefined)
- TGI (OVCAR-4 ovarian): > 100 µM
- TGI (EKVX NSCLC): > 100 µM
- TGI (K-562 leukemia): > 100 µM
- TGI (COLO 205 colon): > 100 µM
- TGI (SNB-19 CNS): > 100 µM
- TGI (HS 578T breast): > 100 µM
- TGI (MDA-MB-231 breast): > 100 µM
- TGI (T-47D breast): > 100 µM
- TGI (SF-539 CNS): > 100 µM
- TGI (UACC-62 melanoma): > 100 µM
- TGI (SK-MEL-28 melanoma): > 100 µM
- TGI (SF-268 CNS): > 100 µM
- TGI (HT29 colon): > 100 µM
- TGI (U251 CNS): > 100 µM
- TGI (NCI-H522 lung): > 100 µM
- TGI (KM12 colon): > 100 µM
- TGI (M14 melanoma): > 100 µM
- TGI (BT-549 breast): > 100 µM
- TGI (MDA-MB-435): > 100 µM
- TGI (DU-145 prostate): > 100 µM
- TGI (A549 NSCLC): > 100 µM
- TGI (NCI/ADR-RES ovarian): > 100 µM
- TGI (SR leukemia): > 100 µM
- TGI (LOX IMVI melanoma): > 100 µM
- TGI (UO-31 renal): > 100 µM
- TGI (SN12C renal): > 100 µM
- TGI (OVCAR-5 ovarian): > 100 µM
- TGI (CCRF-CEM leukemia): > 100 µM
- TGI (HCT-116 colon): > 100 µM
- TGI (SF-295 CNS): > 100 µM
- TGI (MCF7 breast): > 100 µM
- TGI (NCI-H226 lung): > 100 µM
- TGI (786-0 renal): > 100 µM
- TGI (NCI-H23 lung): > 100 µM
- TGI (SNB-75 CNS): > 100 µM
- TGI (TK-10 renal): > 100 µM
- TGI (HOP-92 NSCLC): > 100 µM
- TGI (UACC-257 melanoma): > 100 µM
- TGI (A498 renal): > 100 µM
- TGI (HCC-2998 colon): > 100 µM
- TGI (CAKI-1 renal): > 100 µM
- TGI (NCI-H460 lung): > 100 µM
- TGI (ACHN renal): > 100 µM
- TGI (SK-MEL-2 melanoma): > 100 µM
- TGI (MDA-N): > 100 µM
- TGI (HCT-15 colon): > 100 µM
- TGI (MALME-3M melanoma): > 100 µM
- TGI (SK-MEL-5 melanoma): > 100 µM
- TGI (OVCAR-8 ovarian): > 100 µM
- TGI (SW-620 colon): > 100 µM
- TGI (SK-OV-3 ovarian): > 100 µM
- TGI (IGROV1 ovarian): > 100 µM
- TGI (PC-3 prostate): > 100 µM

Structure (SMILES): N#Cc1c(C#N)c(-c2ccco2)n(-c2ccccc2)c1N
- TGI (OVCAR-4 ovarian): > 100 µM
- TGI (EKVX NSCLC): > 100 µM
- TGI (K-562 leukemia): > 100 µM
- TGI (COLO 205 colon): > 100 µM
- TGI (SNB-19 CNS): > 100 µM
- TGI (MDA-MB-231 breast): > 100 µM
- TGI (T-47D breast): > 100 µM
- TGI (SF-539 CNS): > 100 µM
- TGI (UACC-62 melanoma): > 100 µM
- TGI (SF-268 CNS): > 100 µM
- TGI (HT29 colon): > 100 µM
- TGI (U251 CNS): > 100 µM
- TGI (NCI-H522 lung): > 100 µM
- TGI (KM12 colon): > 100 µM
- TGI (M14 melanoma): > 100 µM
- TGI (BT-549 breast): > 100 µM
- TGI (MDA-MB-435): > 100 µM
- TGI (DU-145 prostate): > 100 µM
- TGI (A549 NSCLC): > 100 µM
- TGI (NCI/ADR-RES ovarian): > 100 µM
- TGI (SR leukemia): > 100 µM
- TGI (LOX IMVI melanoma): > 100 µM
- TGI (UO-31 renal): > 100 µM
- TGI (SN12C renal): > 100 µM
- TGI (OVCAR-5 ovarian): > 100 µM
- TGI (HL-60(TB) leukemia): > 100 µM
- TGI (CCRF-CEM leukemia): > 100 µM
- TGI (HCT-116 colon): > 100 µM
- TGI (SF-295 CNS): > 100 µM
- TGI (MCF7 breast): > 100 µM
- TGI (HOP-62 NSCLC): > 100 µM
- TGI (NCI-H226 lung): > 100 µM
- TGI (786-0 renal): > 100 µM
- TGI (NCI-H23 lung): > 100 µM
- TGI (SNB-75 CNS): 84.4 µM
- TGI (TK-10 renal): > 100 µM
- TGI (MOLT-4 leukemia): > 100 µM
- TGI (HOP-92 NSCLC): > 100 µM
- TGI (UACC-257 melanoma): > 100 µM
- TGI (A498 renal): > 100 µM
- TGI (RXF 393 renal): > 100 µM
- TGI (HCC-2998 colon): > 100 µM
- TGI (CAKI-1 renal): > 100 µM
- TGI (RPMI-8226 leukemia): > 100 µM
- TGI (ACHN renal): > 100 µM
- TGI (SK-MEL-2 melanoma): > 100 µM
- TGI (MDA-N): > 100 µM
- TGI (HCT-15 colon): > 100 µM
- TGI (MALME-3M melanoma): > 100 µM
- TGI (SK-MEL-5 melanoma): > 100 µM
- TGI (OVCAR-8 ovarian): 73.1 µM
- TGI (SW-620 colon): > 100 µM
- TGI (OVCAR-3 ovarian): > 100 µM
- TGI (SK-OV-3 ovarian): > 100 µM
- TGI (IGROV1 ovarian): > 100 µM
- TGI (PC-3 prostate): > 100 µM

— PubChem BioAssay (NCI)
